One test concerns the target T1, β-Secretase (BACE1) (Homo sapiens, UniProt P56817).
T1 construct: purchased Sino Biological
Briefly: β-Secretase inhibition assay (fluorogenic substrate IV). As to conditions: for inhibition at 25 µM: read-out: BACE1 % Inhibition (at 25 µM) (±SEM). Format: biochemical. How it is done:
β-Secretase enzyme was reconstituted with 50 mM Tris (pH 7.5), 10% glycerol to yield concentration of 0.5 unit/µL. The enzyme stock solution was diluted with 100 mM sodium acetate buffer (pH 4.5) to 0.01 unit/µL. Thirty microliters of enzyme solution were added to each well that contained 20 µL of 5% DMSO of test compound. Then, fifty microliters of 50 µM β-secretase substrate IV from Calbiochem were added to the reaction plate. […] The assays were run in triplicate.

Test [1] addresses T2, amyloid-β (1-42) peptide (Homo sapiens, UniProt P05067).
T2 construct: Stock solution of amyloid-β (1-42) peptide (Anaspec; 1384 µM in 1% NH4OH); purchased Anaspec
The experiment in a line: Amyloid β aggregation assay (ThT fluorescence). It is filed as biochemical. The note with it: Aβ(1-42), 48 h; for inhibition at 100 µM: read-out: Anti-Aβ aggregation % Inhibition (at 100 µM) (±SEM). How it is done:
Nine microliters amyloid-β solution was added to a greiner transparent 96 well plate. One microliter of each test compounds (1,000 µM in DMSO) were added to each well and mixed gently by tapping. The final concentrations of each compound were 100 µM in 10% DMSO. The reaction plate was incubated in dark at 37 °C for 48 h. After incubation, 200 µL of 5 µM ThT (Sigma) in 50 mM Tris buffer (pH 7.4) was added to each well. The fluorescence was measured at Ex = 446 nm and Em = 490 nm by using SpectraMax Gemini EM^TM [30]. The assays were run in triplicate.

A short description of test [2]: Fe (II) chelation capacity assay (ferrozine). How it is done:
An aqueous solution of 0.2 mM ferrous sulphate was prepared. Fifty microliters of this solution was added to 96 well plate, then 40 µL of 500 µM of test compounds in 50% DMSO were added to each well followed by DI water to adjust the volume to 150 µL. The mixtures were incubated at room temperature for 10 min. After incubation, 50 µL of 1 mM ferrozine (Sigma) was added to the reaction mixture. The absorbance was measured at 562 nm by using infinite 200 pro^TM, Tecan. EDTA was used as a positive control. Chelation capacity of each compounds were calculated. Compounds having chelating capacity over than 50% were evaluated for stoichiometric ratio of compound: metal.

Test [3] can be described thus: Free radical scavenging assay (DPPH). How it is done:
The test samples were prepared in 50% DMSO at 500 µM. Seventy microliters of DPPH solution (500 µM in methanol) was added to 96 well plate. The assay mixture was adjusted to 80 µL volume by methanol. After adjusting the volume, 20 µL of test compounds was added to each well. The reaction plate was incubated at room temperature in dark for 30 min. The absorbance was measured at 517 nm by using infinite 200 pro^TM, Tecan. Ascorbic acid was used as a positive control. Percent inhibition was calculated and compounds showing activity were evaluated for the IC50 values.
A general note: The DPPH test is a chemical assay of radical scavenging.

The next test concerns SH-SY5Y cells. The experiment in a line: Protection against Aβ1-42 induced neuronal cell death, MTT viability assay. It is filed as cell-based. The note with it: compound 1 μM. How it is done: The SH-SY5Y cells were cultured in a medium containing minimum essential medium (MEM): F-12 (1:1), 10% fetal bovine serum, MEM non-essential amino acids (0.5×), 0.5 mM sodium pyruvate and 100 units/ml of penicillin and 100 μg/mL of streptomycin. The cells were maintained under a humidified incubator with 5% CO2 in air at 37 °C.
SH-SY5Y cells were seeded in 96-well plates (2 × 10^4 cells per well) for 24 h. […] The aggregated β-amyloid was prepared by incubating in a medium without serum, penicillin and streptomycin at 37 °C for 72 h. The cells treated with aggregated β-amyloid were incubated for 24 h, 15 µL of MTT reagent (5 mg/mL MTT in serum free medium containing […]) was added to each well and incubated at 37 °C for 3 h. The medium was removed from each well. One hundred microlitres of 0.04 N HCl in isopropanol was added to each well to dissolve blue formazan crystals, which is the product of MTT catalyzed by mitochondrial dehydrogenase. The absorbance was measured at 570/630 nm using a Synergy^TM HT multi-detection microplate reader (Bio-Tek Instruments, Winooski, VT, USA).
(Formazan colour is commonly taken as a measure of viable cells.)

The target of test [4] is T2, amyloid-β (1-42) peptide. Briefly: Amyloid β aggregation assay (ThT fluorescence). As to conditions: Aβ(1-42), read-out: Anti-Aβ aggregation IC50. Format: biochemical.

What is called inhibition is how much of the control response was suppressed. In general, IC50 refers to the point on the concentration scale where inhibition reaches its midpoint.

Entries after “also recorded” stand apart in the source; their conditions may differ. Where only a bound is given, the exact number is not on record here.

T2 sequence (P05067 672-713 limits assumed): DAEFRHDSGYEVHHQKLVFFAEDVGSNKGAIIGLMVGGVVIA
T1 sequence (P56817 46-501): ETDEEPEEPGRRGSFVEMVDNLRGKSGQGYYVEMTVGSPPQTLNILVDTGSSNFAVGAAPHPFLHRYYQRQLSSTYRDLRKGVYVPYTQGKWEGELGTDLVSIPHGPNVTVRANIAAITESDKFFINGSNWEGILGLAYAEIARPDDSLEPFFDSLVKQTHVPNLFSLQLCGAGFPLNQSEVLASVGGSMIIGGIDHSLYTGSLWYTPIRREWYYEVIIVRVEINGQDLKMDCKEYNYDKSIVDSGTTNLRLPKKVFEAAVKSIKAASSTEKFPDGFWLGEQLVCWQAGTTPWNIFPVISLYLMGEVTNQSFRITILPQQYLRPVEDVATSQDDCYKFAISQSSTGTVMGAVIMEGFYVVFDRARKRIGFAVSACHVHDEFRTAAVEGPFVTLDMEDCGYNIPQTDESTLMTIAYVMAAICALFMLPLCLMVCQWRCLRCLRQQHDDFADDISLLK

As to `CC(C)(C)c1ccc(-c2cn(C[C@@H](N)Cc3c[nH]c4ccccc34)nn2)cc1` [Compound 12a, (S)-1-(4-(4-tert-Butylphenyl)-1H-1,2,3-triazol-1-yl)-3-(1H-indol-3-yl)propan-2-amine], the inhibition at 25 µM at β-Secretase (BACE1) was found to be 18.9%. Besides, on amyloid-β (1-42) peptide [1], the inhibition at 100 µM came to 17.8%. Further, the “Fe chelation % Capacity (at 100 µM) (±SEM)” value in test [2] is 42.65 (±1.07) %.

For `O=C(NCc1cn(C[C@@H]2Cc3c([nH]c4ccccc34)CN2)nn1)c1ccccc1C(=O)c1ccc(O)cc1` [Compound 6d], the inhibition at 25 µM on β-Secretase (BACE1) amounted to 14.1%. Also, the “Fe chelation % Capacity (at 100 µM) (±SEM)” value in test [2] is given as 32.86 (±0.19) %. Besides, in test [3], the “DPPH % Inhibition (at 100 µM) (±SEM)” value is 2.81 (±0.37) %.

For the compound `COc1cc(/C=C/C(=O)CC(=O)/C=C/c2ccc(O)c(OC)c2)ccc1O` [Curcumin, reference compound], the inhibition at 100 µM on amyloid-β (1-42) peptide [1] was found to be 82.9%.

For `O=C1O[C@H]([C@@H](O)CO)C(O)=C1O` [Ascorbic acid, reference compound], in test [3], the half-maximal inhibitory concentration (IC50) was 94.9 µM and the “DPPH % Inhibition (at 100 µM) (±SEM)” value was 53.64 (±0.11) %.

Turning to `C[C@@H](NC(=O)c1cc(C(=O)N[C@@H](Cc2ccccc2)[C@H](O)CNC2CC2)cc(N(C)S(C)(=O)=O)c1)c1ccccc1` [Inh IV, reference compound], the “Protective effect against Aβ1-42 induced neuronal cell death (MTT viability)” value (“Protective effect” for short) in the test with SH-SY5Y cells is recorded as “improved cell viability”.

For the compound `Clc1ccc(-c2cn(C[C@@H]3Cc4c([nH]c5ccccc45)CN3)nn2)cc1Cl` [Compound 6c, (S)-3-((4-(3,4-Dichlorophenyl)-1H-1,2,3-triazol-1-yl)methyl)-2,3,4,9-tetrahydro-1H-pyrido[3,4-b]-indole], at β-Secretase (BACE1), it took 18 µM to reach half-maximal inhibition (IC50) and the inhibition at 25 µM worked out at 78.9%. Further, the inhibition at 100 µM on amyloid-β (1-42) peptide [1] is 10.1%. In addition, in test [2], the “Fe chelation % Capacity (at 100 µM) (±SEM)” value is 15.88 (±0.21) %.

As to `N[C@@H](Cc1c[nH]c2ccccc12)Cn1cc(CNC(=O)CCc2ccc(O)cc2)nn1` [Compound 12e, (S)-N-((1-(2-Amino-3-(1H-indol-3-yl)propyl)-1H-1,2,3-triazol-4-yl)methyl)-3-(4-hydroxyphenyl)propanamide], the inhibition at 25 µM on β-Secretase (BACE1) came out at 7.53%. On amyloid-β (1-42) peptide [1], the inhibition at 100 µM stood at 36%. Moreover, the “Fe chelation % Capacity (at 100 µM) (±SEM)” value in test [2] is 41.42 (±1.13) %.

For `N[C@@H](Cc1c[nH]c2ccccc12)Cn1cc(CNC(=O)c2ccccc2C(=O)c2ccc(O)cc2)nn1` [Compound 12d, (S)-N-((1-(2-Amino-3-(1H-indol-3-yl)propyl)-1H-1,2,3-triazol-4-yl)methyl)-2-(4-hydroxybenzoyl)-benzamide], at β-Secretase (BACE1), the inhibition at 25 µM came to 33%. Further, in test [2], the “Fe chelation % Capacity (at 100 µM) (±SEM)” value is reported as 13.87 (±0.59) %. Also, in test [3], the “DPPH % Inhibition (at 100 µM) (±SEM)” value is given as 1.56 (±0.51) %. At amyloid-β (1-42) peptide [4], the IC50 came to 47.5 µM.

As to `CC(C)(C)c1ccc(-c2cn(C[C@@H]3Cc4c([nH]c5ccccc45)CN3)nn2)cc1` [Compound 6a, (S)-3-((4-(4-tert-Butylphenyl)-1H-1,2,3-triazol-1-yl)methyl)-2,3,4,9-tetrahydro-1H-pyrido[3,4-b] indole], at β-Secretase (BACE1), it took 19.8 µM to reach half-maximal inhibition (IC50) and the inhibition at 25 µM was 68%. The “Fe chelation % Capacity (at 100 µM) (±SEM)” value in test [2] is on record as 9.67 (±0.32) %.

On to `N[C@@H](Cc1c[nH]c2ccccc12)Cn1cc(CNC(=O)/C=C/c2ccc(O)c(O)c2)nn1` [Compound 12h, (S,E)-N-((1-(2-Amino-3-(1H-indol-3-yl)propyl)-1H-1,2,3-triazol-4-yl)methyl)-3-(3,4-dihydroxy-phenyl)acrylamide], for which, on β-Secretase (BACE1), the inhibition at 25 µM turned out to be 40%. In addition, in test [3], the IC50 was found to be 92.7 µM and the “DPPH % Inhibition (at 100 µM) (±SEM)” value is reported as 50.58 (±0.17) %. The “Protective effect” value with SH-SY5Y cells was “significantly greater than those of the potent single target compound, BACE1 inhibitor IV; also recorded: decrease cell death to a greater extent than BACE1 inhibitor IV; also recorded: better than that of single targeted ligands”. The IC50 at amyloid-β (1-42) peptide [4] turned out to be 56.4 µM.

Take `O=C(/C=C/c1ccc(O)c(O)c1)NCc1cn(C[C@@H]2Cc3c([nH]c4ccccc34)CN2)nn1` [Compound 6h, (S)-3-((4-(N-(((E)-(3,4-Dihydroxyphenyl)propenoyl)azyl)methyl)-1H-1,2,3-triazol-1-yl)methyl)-2,3,4,9-tetrahydro-1H-pyrido[3,4-b]indole]: the inhibition at 25 µM at β-Secretase (BACE1) was determined as 21.7%. For the same compound, in test [2], the “Fe chelation % Capacity (at 100 µM) (±SEM)” value is given as 42.74 (±0.30) %. Besides, in test [3], it took 42.9 µM to reach half-maximal inhibition (IC50) and the “DPPH % Inhibition (at 100 µM) (±SEM)” value is 92.29 (±0.02) %. The “Protective effect” value in the test with SH-SY5Y cells was “significantly greater than those of the potent single target compound, BACE1 inhibitor IV; also recorded: decrease cell death to a greater extent than BACE1 inhibitor IV; also recorded: better than that of single targeted ligands”. Further, the IC50 on amyloid-β (1-42) peptide [4] amounted to 29.9 µM.

As to `O=C(CCc1ccc(O)cc1)NCc1cn(C[C@@H]2Cc3c([nH]c4ccccc34)CN2)nn1` [Compound 6e, (S)-3-((4-(N-(((4-Hydroxyphenyl)propanoyl)azyl)methyl)-1H-1,2,3-triazol-1-yl)methyl)-2,3,4,9-tetra-hydro-1H-pyrido[3,4-b]ind ole], the inhibition at 25 µM at β-Secretase (BACE1) amounted to 12.6%. Also, the “Fe chelation % Capacity (at 100 µM) (±SEM)” value in test [2] is 20.63 (±0.35) %. Besides, the “DPPH % Inhibition (at 100 µM) (±SEM)” value in test [3] was 5.45 (±0.33) %.

Turning to `O=C(O)CN(CCN(CC(=O)O)CC(=O)O)CC(=O)O` [EDTA, reference compound], the “Fe chelation % Capacity (at 100 µM) (±SEM)” value in test [2] was 98.00 (±0.34) %.

Turning to “(S)-1-(1H-Indol-3-yl)-3-(4-(6-methoxynaphthalen-2-yl)-1H-1,2,3-triazol-1-yl)propan-2-amine [Compound 12b]”, on β-Secretase (BACE1) (25 µM), the “BACE1 % Inhibition (at 25 µM) (±SEM)” value is reported as 30.42 (±3.54) %. In addition, at amyloid-β (1-42) peptide [1], the “Anti-Aβ aggregation % Inhibition (at 100 µM) (±SEM)” value is recorded as 34.02 (±10.13) %. In addition, in test [2], the “Fe chelation % Capacity (at 100 µM) (±SEM)” value is given as 10.54 (±0.22) %.

`COc1ccc2cc(-c3cn(C[C@@H]4Cc5c([nH]c6ccccc56)CN4)nn3)ccc2c1` [Compound 6b, (S)-3-((4-(6-Methoxynaphthalen-2-yl)-1H-1,2,3-triazol-1-yl)me-thyl)-2,3,4,9-tetrahydro-1H-pyrido-[3,4-b]indole]: at β-Secretase (BACE1), the IC50 was 18.9 µM and the inhibition at 25 µM came to 73.6%. The inhibition at 100 µM at amyloid-β (1-42) peptide [1] came out at 7.19%. The “Fe chelation % Capacity (at 100 µM) (±SEM)” value in test [2] is given as 12.35 (±0.68) %.

`COc1cc(/C=C/C(=O)NCc2cn(C[C@@H]3Cc4c([nH]c5ccccc45)CN3)nn2)ccc1O` [Compound 6g, (S)-3-((4-(N-(((E)-(3-Methoxy-4-hydroxyphenyl)propenoyl)azyl)methyl)-1H-1,2,3-triazol-1-yl)-methyl)-2,3,4,9-tetrahydro-1H-pyrido[3,4-b]indole]: the inhibition at 25 µM on β-Secretase (BACE1) came out at 21.1%. Besides, the inhibition at 100 µM at amyloid-β (1-42) peptide [1] was greater than 50%. The “Fe chelation % Capacity (at 100 µM) (±SEM)” value in test [2] was 8.88 (±0.25) %. In addition, in test [3], the IC50 stood at 106 µM and the “DPPH % Inhibition (at 100 µM) (±SEM)” value is 47.03 (±0.12) %. In addition, at amyloid-β (1-42) peptide [4], the IC50 was 82.9 µM.

(Values after article PMC3618987, “From BACE1 Inhibitor to Multifunctionality of Tryptoline and Tryptamine Triazole Derivatives for Alzheimer’s Disease” (Molecules, 2012).)
